The record followed here is US11745181B2, “Devices and methods for bioassay” (Unchained Labs, priority 2017, dated 2023).

Data set [1] has as its system zebrafish embryos Tg(fli1:EGFP). Put plainly: Heart rate measurement of zebrafish embryos/larvae in the μZMount fluidic device. The data set is classed as in vivo. The note with it: 0.1 μM, 1 μM, or 5 μM for 48 or 96 hours; compared with published literature. On the procedure: Each different drug treatment was replenished every 24 hours, effectively dosing the zebrafish at 24, 48, 72, and 96 hours post initial drug treatment. The drug was added in a manner similar to replenishing the media. At 4 dpf, each larvae was moved into its respective second bioassay region by adding 10 μl of media to the sample chamber and aspirated out quickly from the first outlet. The yolk of the zebrafish at this age has depleted enough to allow the fish to flow into the second bioassay region.
Heart rate was measured for no less than five embryos per treatment at 48 hours post fertilization (hpf) and 96 hpf. Of the heart rates measured, three of them were recorded using video image capturing techniques for future evaluation. The heart rates were measured by visually inspecting the heart beat and counting the number of beats in 15 seconds and then multiplying by 4.

Data set [2] concerns zebrafish larvae Tg(fli1:EGFP). Description: High-resolution fluorescence-microscopy imaging of vessel sprouting and morphology in zebrafish larvae. The data set is classed as in vivo. The note with it: 0.1 μM, 1 μM, or 5 μM, replenished every 24 hours. The source says: In this example, green fluorescent zebrafish embryos were loaded into the fluidic chambers of μZMount, a non-limiting exemplary fluidic device with the structure provided in FIGS. 1-2 herein and dimensions that were within 5% of the target dimensions as provided herein with reference to the illustrative embodiment provided in FIGS. 1-2, and that includes a plurality of fluidic chambers having the features and within 5% of the target dimensions provided herein for the illustrative embodiment of FIGS. 2A-2B. […] These zebrafish were Tg(fli1:EGFP) and expressed enhanced GFP under the control of the fli1 promoter such that the entire vasculature fluoresces. The zebrafish embryos and larvae that developed therefrom, were visualized with high-resolution fluorescent microscopy.
Each different drug treatment was replenished every 24 hours, effectively dosing the zebrafish at 24, 48, 72, and 96 hours post initial drug treatment. The drug was added in a manner similar to replenishing the media. […]
Embryos were imaged at various time points while within the fluidic device, up to 5 dpf, using high-resolution fluorescence-microscopy. […]
Drug-mediated inhibition of intersegmental and subintestinal vessels sprouting was recorded using high-resolution fluorescence-microscopy.

Molecules are shown by their SMILES.

Take `Cc1cc(C)c(/C=C2\C(=O)Nc3ccccc32)[nH]1` [SU-5416]: the heart rates result in data set [1] is given as “within the normal range”. Also, the dorsalization entry in data set [2] is “concentration dependent dorsalization”. Also, in data set [2] (fluorescence microscopy), the “inhibition of intersegmental and subintestinal vessels sprouting (angiogenic development)” value is reported as “suppression of angiogenic development similar to published work”.
